In ChEMBL document CHEMBL1201862, “PubChem BioAssay data set” (2004):
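Five concentrations, 48 hours, 96-well plates. The concentration for 50% growth inhibition is given as GI50.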 Calls of active or inactive are those of the source. No stated cut-off is given here; in the data, active = GI50 up to about 1.1 µM and inactive = higher.

How the values were obtained:
Assay in all cases: DTP human tumour cell line panel, 48 h
A498 = tested on: A498
CAKI-1 = tested on: CAKI-1
CCRF-CEM = tested on: CCRF-CEM
HCT-116 = tested on: HCT-116
M14 = tested on: M14
NCI-H226 = tested on: NCI-H226
OVCAR-4 = tested on: OVCAR-4
SF-295 = tested on: SF-295
SK-MEL-2 = tested on: SK-MEL-2
SK-MEL-5 = tested on: SK-MEL-5
SK-OV-3 = tested on: SK-OV-3
SN12C = tested on: SN12C
SNB-75 = tested on: SNB-75
U-251 = tested on: U-251
UACC-62 = tested on: UACC-62
UO-31 = tested on: UO-31
MCF7 = tested on: MCF7
MDA-MB-435 = tested on: MDA-MB-435
NCI/ADR-RES = tested on: NCI/ADR-RES

Measured: GI50

Oc1ccc2c(c1)OCC1(O)Cc3cc(O)c(O)cc3C21 (stereo not drawn)
inactive: A498 19.1 µM | CAKI-1 18.1 µM | CCRF-CEM 29.7 µM | HCT-116 21 µM | M14 19.2 µM | NCI-H226 > 52.5 µM | OVCAR-4 19.1 µM | SF-295 > 55.5 µM | SK-MEL-2 27.1 µM | SK-MEL-5 17.7 µM | SK-OV-3 39.9 µM | SN12C 21.8 µM | SNB-75 24.3 µM | U-251 18.7 µM | UACC-62 19.7 µM | UO-31 60.1 µM

COc1cc2c(c(O)c1O)-c1ccc(OC)c(=O)cc1C(NC(C)=O)CC2 (stereo not drawn)
inactive: A498 34.1 µM | CAKI-1 78.5 µM | CCRF-CEM 3.49 µM | HCT-116 5.57 µM | M14 7.41 µM | NCI-H226 43.2 µM | OVCAR-4 27.5 µM | SF-295 12.5 µM | SK-MEL-2 3.13 µM | SK-MEL-5 3.58 µM | SK-OV-3 15 µM | SN12C 12.8 µM | SNB-75 2.57 µM | U-251 4.88 µM | UACC-62 6.98 µM | UO-31 > 100 µM

C[N+](C)(C)CC(=O)NC(=O)N/N=C\C(CC#N)CN(Cc1ccccc1)Cc1ccccc1 (stereo not drawn)
inactive: A498 > 100 µM | CAKI-1 > 100 µM | CCRF-CEM > 100 µM | HCT-116 > 100 µM | M14 > 100 µM | NCI-H226 37.5 µM | OVCAR-4 > 100 µM | SF-295 38 µM | SK-MEL-2 > 100 µM | SK-MEL-5 > 100 µM | SK-OV-3 > 100 µM | SN12C > 100 µM | SNB-75 > 100 µM | U-251 > 100 µM | UACC-62 > 100 µM | UO-31 > 100 µM

COCCOC(=O)NCn1cc(-c2ccccc2)nn1
inactive: CAKI-1 > 100 µM | CCRF-CEM > 100 µM | HCT-116 > 100 µM | M14 > 100 µM | MCF7 > 100 µM | MDA-MB-435 > 100 µM | NCI-H226 13.8 µM | NCI/ADR-RES > 100 µM | OVCAR-4 > 100 µM | SF-295 > 100 µM | SK-MEL-2 > 100 µM | SK-MEL-5 > 100 µM | SN12C > 100 µM | U-251 > 100 µM

COc1ccc(/C=C2\C(=O)Nc3ccccc32)cc1OC
inactive: A498 > 100 µM | CAKI-1 > 100 µM | CCRF-CEM > 100 µM | HCT-116 > 100 µM | M14 > 100 µM | NCI-H226 > 100 µM | OVCAR-4 97.3 µM | SF-295 > 100 µM | SK-MEL-2 > 100 µM | SK-MEL-5 64.4 µM | SK-OV-3 32 µM | SN12C > 100 µM | SNB-75 24.5 µM | U-251 28.9 µM | UACC-62 > 100 µM | UO-31 86.3 µM

CCn1c(C)nc([N+](=O)[O-])c1Sc1ncc[nH]1
inactive: A498 > 100 µM | CAKI-1 68.1 µM | CCRF-CEM 19.8 µM | HCT-116 43.2 µM | M14 32.4 µM | NCI-H226 > 100 µM | OVCAR-4 64.4 µM | SF-295 > 100 µM | SK-MEL-2 25.4 µM | SK-MEL-5 48.4 µM | SK-OV-3 > 100 µM | SN12C 37 µM | SNB-75 50.6 µM | U-251 44 µM | UACC-62 28.5 µM | UO-31 30.5 µM

Nc1ccccc1C(=O)/C=C/c1c(O)ccc2ccccc12
inactive: A498 > 100 µM | CAKI-1 > 100 µM | CCRF-CEM > 100 µM | HCT-116 > 100 µM | M14 > 100 µM | NCI-H226 > 100 µM | OVCAR-4 > 100 µM | SF-295 > 100 µM | SK-MEL-2 > 100 µM | SK-MEL-5 > 100 µM | SK-OV-3 > 100 µM | SN12C 32.7 µM | SNB-75 > 100 µM | U-251 > 100 µM | UACC-62 > 100 µM | UO-31 > 100 µM

Cc1cc(O)nc(CNC(=O)c2ccc3ccccc3c2)n1
inactive: A498 > 100 µM | CAKI-1 > 100 µM | CCRF-CEM > 100 µM | HCT-116 > 100 µM | M14 > 100 µM | NCI-H226 > 100 µM | OVCAR-4 > 100 µM | SF-295 > 100 µM | SK-MEL-2 > 100 µM | SK-MEL-5 > 100 µM | SK-OV-3 > 100 µM | SN12C > 100 µM | SNB-75 > 100 µM | U-251 > 100 µM | UACC-62 > 100 µM | UO-31 > 100 µM

CCCCCCCC(=O)OCC1OC(OC)C(NC(=O)N(CCCl)N=O)C(O)C1O (stereo not drawn)
inactive: A498 21.5 µM | CAKI-1 9.08 µM | CCRF-CEM 4.06 µM | HCT-116 3.22 µM | M14 8.41 µM | NCI-H226 15.7 µM | OVCAR-4 > 54.6 µM | SF-295 4.07 µM | SK-MEL-2 17.1 µM | SK-MEL-5 15.1 µM | SK-OV-3 28.5 µM | SN12C 7.67 µM | SNB-75 4.72 µM | U-251 4.91 µM | UACC-62 1.86 µM | UO-31 17.6 µM

CCOC(=O)NC/C=C/COC1CCCCO1 (stereo not drawn)
inactive: A498 > 100 µM | CAKI-1 > 100 µM | CCRF-CEM > 100 µM | HCT-116 > 100 µM | M14 > 100 µM | NCI-H226 > 100 µM | OVCAR-4 > 100 µM | SK-MEL-2 > 100 µM | SK-MEL-5 > 100 µM | SK-OV-3 > 100 µM | SN12C > 100 µM | SNB-75 > 100 µM | U-251 > 100 µM | UACC-62 > 100 µM | UO-31 > 100 µM

COC(=O)c1cc2c(=O)n(C)c3ccccc3n2c1C(=O)OC
inactive: A498 27.2 µM | CAKI-1 73.5 µM | CCRF-CEM > 100 µM | M14 47.9 µM | NCI-H226 30.3 µM | OVCAR-4 > 100 µM | SF-295 34.3 µM | SK-MEL-2 > 100 µM | SK-MEL-5 > 100 µM | SK-OV-3 28.1 µM | SN12C 42.5 µM | SNB-75 16.1 µM | U-251 24.1 µM | UACC-62 > 100 µM | UO-31 63.1 µM

CCN1C2=NC(=O)N(C)C(=O)C2(Cl)C(C(SC)S(=O)(=O)c2ccc(C)cc2)c2ccccc21 (stereo not drawn)
inactive: A498 > 100 µM | CAKI-1 34 µM | CCRF-CEM 5.62 µM | HCT-116 20.1 µM | M14 24.2 µM | NCI-H226 32.4 µM | OVCAR-4 22.9 µM | SF-295 51.8 µM | SK-MEL-2 55.3 µM | SK-MEL-5 35.6 µM | SK-OV-3 > 100 µM | SN12C 61 µM | SNB-75 20.7 µM | U-251 79.8 µM | UACC-62 44.7 µM | UO-31 19.9 µM
